Measurements as given in paper PMC9889419 (Pharmacological Reports, 2022).
“And” between values parts separate entries of the source, which are not always exact repeats. Equal entries are not always repeated. Where two headings read alike, the source gives them in different places. Marks after values point to notes of the source that are not given here.

Tests used:
mice [1] = experiment: Corneal kindling; format: in vivo; conditions: […], ip
mice [2] = experiment: Formalin test (ETSP, area under the curve); format: in vivo; conditions: 20.0 mg/kg, ip
mice [3] = experiment: Subcutaneous pentylenetetrazole seizure test (ScPTZ, SCMET); format: in vivo; conditions: mice, ip, […]
Protocol: (§3) The assays were carried out within the Epilepsy Therapy Screening Program (ETSP, previously known as the Anticonvulsant Screening Program, ASP), Epilepsy Branch, National Institute of Neurological and Communicative Disorders and Stroke, National Institutes of Health in Rockville, MD, USA [23].

murine astrocytes [4] = experiment: Crystal violet (CV) assay; format: cell-based
Protocol: CV assay. Cells were seeded at a density of 1 × 10^4 cells per well in 96-well plates.

mice [5] = experiment: 6 Hz test; format: in vivo; conditions: mice
Protocol: The 6 Hz model test was carried out according to the protocol originally described by Brown et al. [54] and more recently by Barton et al. [55] and Kamiński et al. [47] and is a model of pharmacoresistant epilepsy [56].

murine astrocytes [6] = experiment: MTT assay; format: cell-based
Protocol: Cells were seeded at a density of 1 × 10^4 cells per well in 96 well plates. […] Next, Crystal Dissolving Solution (Cayman) was added to each well.

mice [7] = experiment: Formalin test (first screening); format: in vivo; conditions: 30.0 mg/kg, ip
Protocol: Formalin test. The first screening in doses 15 and 30 mg/kg was performed at the Jagiellonian University-Medical College. […] After 30 min, animals were injected with 20 μL of a 0.5% formalin solution into the plantar surface of the hind paw. The total time spent by animal licking or biting the injected paw was assessed for the following 40 min.

guinea pigs [8] = experiment: Corneal anesthesia; format: in vivo
Protocol: A. Corneal anesthesia. […] The corneal reflex was examined by irritation of right eye conjunctiva (studied eye) and a left eye conjunctiva (control eye) by horsehair. The strength of local anesthetic activity was determined from the moment of solution instillation to the moment of reflex return. The presence or lack of corneal reflex were assessed. The eye conjunctiva irritation was done 6 times (every 5 s) with the interval of 5 min during the first 30 min [31].

[9] = system: organotypic hippocampal slice cultures; experiment: Neuroprotection primary screen, excitotoxin NMDA; format: cell-based; conditions: NMDA 10 µM; 10 and 100 µM compound
From the text: Gompound 1 : ADD Number: ItSot+ Batct: lE- Date Started:
Compound 2 : ADD Number: Froso Batct: le Date Completed i l|26-M ar -20 1 O […]
Excitotoxin: lNmoa lnsult Duration: la Uouo Solvent:
Primary Screen Results: ffi […]
Al lruuoa rolrr,| A2lr'rrr,tOa r Olrrr,t * --.- A3 lr'rnroa r oprvr + lsaoot+ t oplrl+aesogo iopM
BZ lr.rrr,ron ropr,t , -_-_-- 83 lluoa topt',r * jffi 1 4 t oopM.€sroso 1 oolrM la+eota tooptu*aasoeo roffi […]
The 'Primary screen Experiment" is a qualitative assessment of the ability of a compound to prevent excrtotoxic cell death. organotypic hippocampal slice cultures are treated *ltn r.i-."iivr-o-"spartate (NMDA) or kainic acad (KA) to induce neuronal cell death' Propidium iodide (Pl), a membrane-imper.eant cornpouna, is included in all wells of the culture plate.
Dying cells have compromised *]lT^"Toj*::, ttr. er rnJy oin "" into the cell, intercatate with DNA and fluoresce. Thus, the intensity of the Pl fluorescence is proportional to the amount of cell death in lhe individual itices. ttippocampat slice cullures are treated with the excitotoxin alone, or *i er. inoi"ui"o above, with the excitotoxin and either one -qf]bar-a Investigalional compounds at the concentrations indicated. lf neuroprotectron occurs as a consequence of the added […]
(§1) been treated with the excitotoxin alone.
(§2) (1 picture or pasted object on this page, not shown here)

[10] = system: organotypic hippocampal slice cultures; experiment: Neuroprotection primary screen, excitotoxin kainic acid; format: cell-based; conditions: kainic acid 20 µM; 10 and 100 µM compound
Protocol: Compound 2 : ADD t{umber, b890s0 Batch: lB- Date Compteted. Ect\,t""201 0 […]
Excilotoxin: llGinic ncia Insult Duration: l+ Hours Solvent: […]
Ai lxn zopr.,r aZ lxa zopr,r Ae lre zoprta
Bz lr<n zopn er ]ra zopr',t l:+aot a r ooprt/|*aa9o8o l oopM lgaeota t oot,tr,t*gB9o8o t oopM […]
The "Primary screen Experiment" is a qualitative assessment of the ability of a compound to prevent excitotoxic cell dearh. organotypic hippocampal slice clltures are treated with N-methyl-D-aipartate lNuoa; o; kainic acid (KA) to induce neuronal cell death. Propidium iodide (Pl), a membrane-impermeant compound, is included in all welts of the culture plate.
Dying cells have compromised cell membranes, thus Pl may diffuse into the cell, intercalate with DNA and ftuoresce. Thus, the intensity of the Pl fluorescence is proportional to the amount of cell death in the individual slices. Hippocampal slice cultures are treated with the excitotoxin alone, or where indicated above, with the excitotoxin and either one eltu/o investigational compounds at the concentrations indicated. lf neuroprotection occurs as a consequence of the added […]
as §1, §2

guinea pigs [11] = experiment: Infiltration anesthesia (intradermal wheal test); format: in vivo
Protocol: A painful reaction to a prick of the skin at the centre of the wheal three times and every 5 s with 5 min intervals during the first 30 min of observation was tested. The experiment was continued to achieve a return of a reaction to the prick. The control wheal was done by an intradermal injection of 0.1 mL of 0.9% NaCl [25]. Local anesthesia was determined by calculating the ratio of the number of positive responses (no flinch) to the number of negative responses (flinch).

mice [12] = experiment: Tail immersion test (local anesthetic activity); format: in vivo
Protocol: The tail immersion test in mice. […] The method was performed by subcutaneous (sc) injection of the tested substance dissolved in saline, at a concentration range 0.06–2%, in a constant volume of 0.2 mL about 1 cm from the root of the mouse tail. Fifteen minutes later, the 3-cm distal part of the tail was immersed into temperature-controlled water (50 ± 0.5 °C). The reaction time (latency until the tail is pulled away) was measured by the means of a chronometer. In this assay the cut-off was 20 s [29].

rats [13] = format: in vivo; conditions: ip
rats [14] = format: in vivo; conditions: ip; remark: listed apart in the source
mice [15] = conditions: mice
mice [16] = experiment: Rotarod test (neurotoxicity); format: in vivo; conditions: mice;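 note: in vivo neurotoxicity screen run within the NIH Epilepsy Therapy Screening Program (ETSP, formerly Anticonvulsant Screening Program)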
Protocol: as §3
(§4) The obtained compounds were screened for antiseizure activity and neurotoxicity in vivo within the Epilepsy Therapy Screening Program (ETSP, previously known as the Anticonvulsant Screening Program, ASP), Epilepsy Branch, National Institute of Neurological and Communicative Disorders and Stroke, National Institutes of Health in Rockville, MD, USA [23].

rats [17] = experiment: Maximal electroshock seizure (MES) test; format: in vivo; conditions: ip
rats [18] = experiment: Rotarod / TOX (neurotoxicity); conditions: rats, ip
Protocol: as §3, §4

rats [19] = experiment: Sciatic nerve ligation (SNL) model, von Frey test; format: in vivo; conditions: ip
slices = experiment: Propidium iodide uptake in slices; format: cell-based; conditions: 100.00 uM
From the text: Anticonvulsant Screeninq Proqram
Solvent Code: DMSO Solvent Prep:
Add Compound Conc,(uM) # of slices % ofTotal Propidium lodide Uptake(mean +,/- S.E.M)

rats [20] = experiment: SCMET (subcutaneous Metrazol) test; format: in vivo; conditions: rats, ip, 0.50 h
mice [21] = conditions: mouse, in vivo
Protocol: They were also evaluated in the iv pentylenetetrazole (PTZ) test.
Data are expressed as the mean PTZ dose ± SEM for n = 10 that induced clonus or twitch in mice exposed to a particular dose of the test compound

## CC[C@H](CO)NCCOc1c(C)cccc1Cl.Cl [Compound 5a, R-(-)-2-((2-(2-chloro-6-methylphenoxy)ethyl)amino)butan-1-ol hydrochloride]
Mice [1]; at 25 mg/kg
  Corneal kindling seizure score by Racine (0–5): 4.3
Mice [2]
  Area under the curve, % of control (I phase): 76.5; t14 = 0.8847%
  Area under the curve, % of control (II phase): 91.5; t14 = 0.5440%
Mice [3]
  SCMET ED50: > 70.00 mg/kg
Murine astrocytes [4]
  impact on proliferation (crystal violet): did not exhibit cytotoxic activity and a notable impact on proliferation
Mice [5]; 44 mA, TPE 0.5 h, ip
  6 Hz ED50: 52.49 (41.85–67.05) mg/kg
Mice [5]; 44 mA, ip
  6 Hz TPE: 0.5 h
Mice [5]; 44 mA, po
  6 Hz TPE: 0.25 h
Murine astrocytes [6]
  cytotoxic activity (MTT): did not exhibit cytotoxic activity
Mice [7]
  % of effect (I phase): 19.4%
  % of effect (II phase): 55.7%
  Time of licking paw ± SEM (I phase): 72.3 ± 8.7 s
  Time of licking paw ± SEM (II phase): 13.5 ± 5.4 s
Guinea pigs [8]; 0.125%, 5 min
  Inhibition of pain reaction: 46.67* %
Guinea pigs [8]; 0.125%, 30 min
  Inhibition of pain reaction: 0%
Guinea pigs [8]; 0.125%, 60 min
  Inhibition of pain reaction: 0%
Guinea pigs [8]; 0.125%, 120 min
  Inhibition of pain reaction: 0%
Guinea pigs [8]; 0.5%, 5 min
  Inhibition of pain reaction: 80.55*** %
Guinea pigs [8]; 0.5%, 30 min
  Inhibition of pain reaction: 0%
Guinea pigs [8]; 0.5%, 60 min
  Inhibition of pain reaction: 0%
Guinea pigs [8]; 0.5%, 120 min
  Inhibition of pain reaction: 0%
Guinea pigs [8]; […], 5 min
  Inhibition of pain reaction: 36.11* %
Guinea pigs [8]; […], 30 min
  Inhibition of pain reaction: 0%
Guinea pigs [8]; […], 60 min
  Inhibition of pain reaction: 0%
Guinea pigs [8]; […], 120 min
  Inhibition of pain reaction: 0%
[9]
  Test Result (neuroprotection): No neuroprotection
[10]
  Test Result (neuroprotection): No neuroprotection observed
Guinea pigs [11]; 0.125%, 5 min
  Inhibition of pain reaction: 83.33*** %
Guinea pigs [11]; 0.125%, 30 min
  Inhibition of pain reaction: 44.44** %
Guinea pigs [11]; 0.125%, 24 h
  Inhibition of pain reaction: 0%
Guinea pigs [11]; 0.5%, 5 min
  Inhibition of pain reaction: 100*** %
Guinea pigs [11]; 0.5%, 30 min
  Inhibition of pain reaction: 72.22*** %
Guinea pigs [11]; 0.5%, 60 min
  Inhibition of pain reaction: 58.82** %
Guinea pigs [11]; 0.5%, 120 min
  Inhibition of pain reaction: 52.94** %
Guinea pigs [11]; 0.5%, 24 h
  Inhibition of pain reaction: 0%
Guinea pigs [11]; […], 5 min
  Inhibition of pain reaction: 100*** %
Guinea pigs [11]; […], 60 min
  Inhibition of pain reaction: 33.33* %
Guinea pigs [11]; […], 240 min
  Inhibition of pain reaction: 16.67%
Guinea pigs [11]; […], 24 h
  Inhibition of pain reaction: 0%
Mice [12]; 0.031%
  Prolongation of the time reaction: 40.0%
  Reaction time to painful stimulus: 4.9 ± 0.9 s
Mice [12]; 0.094%
  Prolongation of the time reaction: 57.1%
  Reaction time to painful stimulus: 5.5 ± 1.6 s
Mice [12]; 0.125%
  Prolongation of the time reaction: 297.1%
  Reaction time to painful stimulus: 13.9 ± 1.8 s
Mice [12]; 0.5%
  Prolongation of the time reaction: 434.3%
  Reaction time to painful stimulus: 18.7 ± 1.3 s
Mice [12]; 2.0%
  Prolongation of the time reaction: 391.4%
  Reaction time to painful stimulus: 17.2 ± 1.9 s
Mice [12]; […]
  Prolongation of the time reaction: 8.6%
  Reaction time to painful stimulus: 3.8 ± 0.5 s
Rats [13]
  Hippocampal kindling TPE: 0.25 h
Rats [13]; at 40 mg/kg
  Hippocampal kindling seizure score by Racine (0–5), Rat1: 4
  Hippocampal kindling seizure score by Racine (0–5), Rat2: 0
Rats [14]; at 40 mg/kg
  Pilocarpine-induced status epilepticus prevention: result: no activity
Mice [15]; ip
  MES ED50: 19.78 (16.16–22.33) mg/kg
Mice [15]; po
  MES PI: 5.03
  MES TPE: 0.25 h
  MES ED50: 64.12 (52.15–75.37) mg/kg
Mice [16]; ip
  Rotarod TD50: 54.01 (35.70–64.23) mg/kg
Mice [16]; po
  Rotarod TPE: 0.25 h
  Rotarod TD50: 322.33 (257.98–382.69) mg/kg
Rats [17]
  MES PI: 10.15
  MES TPE: 0.25 h
Rats [17]; […]
  MES ED50: 3.9 (2.1–6.2) mg/kg
Rats [18]
  Rotarod TPE: 0.25 h
  Rotarod TD50: 39.6 (36.2–78.3) mg/kg
Rats [19]; rat, in vivo
  SNL TPE: 1 h
Rats [19]; rats, von Frey test
  SNL: active at: 4 mg/kg

## CC[C@@H](CO)NCCOc1c(C)cccc1Cl [Compound 6, S-( +)-2-((2-(2-chloro-6-methylphenoxy)ethyl)amino)butan-1-ol]
Mice [1]
  Corneal kindling ED50: 10.50 (3.67–22.09) mg/kg
Mice [2]
  Area under the curve (I phase): 135.3 ± 36.4
  Area under the curve (II phase): 387.0 ± 110.1
  Area under the curve, % of control (I phase): 69.3% and 69.3; t14 = 1.5800%
Mice [2]; listed as 354010
  Area under the curve (I phase): 135.2
  Area under the curve (II phase): 387.0
  Area under the curve, % of control (II phase): 57.2%
Mice [5]; 32 mA, […], ip
  6 Hz ED50: 20.4 (14.9–25.4) mg/kg
slices
  % of Total Propidium Iodide Uptake (mean +/- S.E.M): 33.1%
Rats [20]
  SCMET ED50: > 60.0 mg/kg
[9]
  Test Result (neuroprotection): No neuroprotection observed
Rats [13]; […]
  Hippocampal kindling ED50: 15.81 mg/kg
Rats [14]
  Pilocarpine-induced status epilepticus prevention: active at: 45 mg/kg
Rats [14]; at 90 mg/kg
  Pilocarpine test: deaths: 8 deaths in 9 rats
Mice [16]; ip
  Rotarod TD50: 47.7 (32.6–68.3) mg/kg
Mice [16]; ip, 6 Hz report of Aug-2010
  TOX TD50: 35.8 mg/kg
Rats [17]
  MES PI: 4.19
  MES TPE: 0.5 h
Rats [17]; 0.5 h (TPE)
  MES ED50: 10.58 (6.69–15.38) mg/kg
Rats [18]
  Rotarod TD50: 44.29 (40.72–47.52) mg/kg
Mice [21]
  influence on seizure threshold: effect was not shown
